Here are results for one compound from patent US20220289765A1, “CRYSTAL OF CARCINOGENIC FUSED KINASE INHIBITOR AND APPLICATIONS THEREOF” (Simcere Pharmaceutical Co., Ltd., priority 2019, published 2022).

In one test the target is T1, ALK (Homo sapiens, UniProt Q9UM73).
T1 construct: purchased Reaction Biology Corp
Description: Kinase inhibitory activity (33P-ATP filtration-binding, Reaction Biology Corp.). It is filed as biochemical. The settings on record: read-out: Half Inhibitory Concentrations of Kinases IC50, ALK. The method, then: The inhibitory activity tests of compounds against kinases such as TrkA, TrkC, ALK, Ros1 were completed in Reaction Biology Corp. Certain concentrations of substrate, cofactors, kinases and test compounds (10 doses, 3-fold serial dilutions, 2% DMSO final concentration) were sequentially added to the reaction buffer (20 mM Hepes (pH 7.5), 10 mM MgCl2, 1 mM EGTA, 0.02% Brij35, 0.02 mg/mL BSA, 0.1 mM Na3VO4, 2 mM DTT, 1% DMSO), and mixed well. The resulting mixture was incubated at room temperature for 20 minutes, and a certain concentration of 33P-ATP was added to the reaction mixture to initiate the reaction, followed by incubation at room temperature for 120 minutes. Finally, the radioactivity of the reactants was detected by a filtration-binding method. The final kinase activity was expressed by the ratio of the remaining kinase activity in the test sample to the kinase activity of the DMSO control group. The dose-effect curve was fitted by GraphPad software and the IC50 values were calculated.

The test system of test [1] is Ba/F3 LMNA-NTRK1-WT stable transformant cell line. Description: Cell proliferation inhibition (CellTiter-Glo, 72 h). It is filed as cell-based. The settings on record: Mus musculus, BaF3, read-out: Half Inhibitory Concentrations of Cells IC50, Ba/F3 LMNA-NTRK1-WT. Here is the method:
Adenosine Tri-Phosphate (ATP) is an energy carrier shared by various life activities in nature and is the smallest unit of energy storage and transfer. In CellTiter-Glo™ Live Cell Detection Kit, luciferase was used as a detection substance, and it required the involvement of ATP during luminescence. CellTiter-Glo™ reagent was added to the cell culture medium to measure a luminescence value, and the light signal was proportional to the amount of ATP in the system, and ATP was positively correlated to the number of viable cells. Therefore, by detecting the ATP content using the CellTiter-Glo Kit, cell proliferation can be detected. In this test, the cell line was Ba/F3 LMNA-NTRK1-WT stable transformant cell line, and the number of cells was 5000/well.
• a) Cells in the logarithmic growth phase were harvested and counted by using a […]. Cell viability was detected by trypan blue exclusion assay to ensure that the cell viability was above 90%. • b) The cell concentration was adjusted, and 90 μL cell suspension was added to a 96-well plate, respectively. • c) Cells in the 96-well plate were incubated overnight at 37° C., 5% CO2 and 95% humidity. […]
The data were analyzed using GraphPad Prism 5.0 software, and were fitted to obtain a dose-effect curve using a non-linear S-curve regression, and the IC50 values were calculated therefrom.
On the technique in general: ATP-based viability assays read luminescence as a measure of living cells.

Another test concerns Ba/F3 LMNA-NTRK1-G595R. The test is described as above. The test is classed as cell-based. The settings on record: Mus musculus, BaF3, read-out: Half Inhibitory Concentrations of Cells IC50, Ba/F3 LMNA-NTRK1-G595R.

T1 sequence (Q9UM73 19-1620): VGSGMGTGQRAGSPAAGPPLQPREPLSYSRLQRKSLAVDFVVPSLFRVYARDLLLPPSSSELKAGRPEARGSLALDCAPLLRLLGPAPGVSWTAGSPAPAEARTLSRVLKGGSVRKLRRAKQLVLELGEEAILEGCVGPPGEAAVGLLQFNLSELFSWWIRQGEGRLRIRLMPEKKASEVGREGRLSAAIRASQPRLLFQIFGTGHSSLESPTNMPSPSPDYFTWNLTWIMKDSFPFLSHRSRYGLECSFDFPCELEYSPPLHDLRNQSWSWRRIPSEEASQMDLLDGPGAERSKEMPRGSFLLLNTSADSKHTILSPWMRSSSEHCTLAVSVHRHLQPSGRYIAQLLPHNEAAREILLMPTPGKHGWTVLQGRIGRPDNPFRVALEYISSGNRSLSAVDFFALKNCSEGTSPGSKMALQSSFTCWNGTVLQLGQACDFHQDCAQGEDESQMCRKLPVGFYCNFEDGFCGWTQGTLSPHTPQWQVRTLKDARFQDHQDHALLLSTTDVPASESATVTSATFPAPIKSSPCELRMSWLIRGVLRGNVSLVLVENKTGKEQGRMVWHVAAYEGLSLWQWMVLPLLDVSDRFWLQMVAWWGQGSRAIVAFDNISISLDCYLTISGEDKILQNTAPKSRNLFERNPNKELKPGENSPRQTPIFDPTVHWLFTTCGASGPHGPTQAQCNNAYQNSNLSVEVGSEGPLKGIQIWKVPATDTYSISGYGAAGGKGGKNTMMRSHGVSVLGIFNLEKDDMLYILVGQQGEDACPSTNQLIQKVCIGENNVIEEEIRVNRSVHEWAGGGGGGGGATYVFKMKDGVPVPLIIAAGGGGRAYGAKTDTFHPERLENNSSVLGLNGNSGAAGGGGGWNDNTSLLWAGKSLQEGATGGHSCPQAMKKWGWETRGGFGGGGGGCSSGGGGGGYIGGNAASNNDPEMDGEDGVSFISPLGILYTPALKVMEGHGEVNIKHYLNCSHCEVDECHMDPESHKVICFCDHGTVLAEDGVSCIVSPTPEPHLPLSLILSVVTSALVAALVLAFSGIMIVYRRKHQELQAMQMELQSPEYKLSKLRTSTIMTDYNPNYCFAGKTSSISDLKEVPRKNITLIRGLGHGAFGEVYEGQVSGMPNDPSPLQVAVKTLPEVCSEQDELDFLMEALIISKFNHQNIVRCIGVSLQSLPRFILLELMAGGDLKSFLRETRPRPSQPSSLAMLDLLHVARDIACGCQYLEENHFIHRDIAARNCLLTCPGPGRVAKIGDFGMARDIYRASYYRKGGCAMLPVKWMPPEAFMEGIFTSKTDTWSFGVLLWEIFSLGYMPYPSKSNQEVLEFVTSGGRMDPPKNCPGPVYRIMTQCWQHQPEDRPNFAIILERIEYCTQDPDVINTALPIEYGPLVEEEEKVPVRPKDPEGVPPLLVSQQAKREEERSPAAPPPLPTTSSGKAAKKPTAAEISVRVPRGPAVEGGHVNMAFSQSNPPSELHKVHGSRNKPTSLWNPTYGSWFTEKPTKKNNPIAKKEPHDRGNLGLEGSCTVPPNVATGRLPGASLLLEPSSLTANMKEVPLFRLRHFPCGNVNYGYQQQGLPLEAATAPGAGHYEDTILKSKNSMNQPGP

`O=C1NC2(CC2)COc2ncc(F)cc2[C@H]2CCON2c2ccn3ncc1c3n2` [Compound of Formula (I)]: the IC50 turned out to be 13 nM on ALK, 1.26 nM in test [1] and 6.2 nM in the test with Ba/F3 LMNA-NTRK1-G595R.
